Measurements reported in patent publication US20060035925A1, “SUBSTITUTED 4H-CHROMENES AND ANALOGS AS ACTIVATORS OF CASPASES AND INDUCERS OF APOPTOSIS AND THE USE THEREOF” (Cytovia, Inc., priority 1999, published 2006).
Where two headings read alike, the source gives them in different places.

Columns and labels:
[1] = system: Human breast cancer cell line T-47D; assay: Caspase cascade activation assay (N-(Ac-DEVD)-N'-ethoxycarbonyl-R110 fluorogenic substrate) in T-47D cells; type: cell-based; conditions: for Caspase activity (Ratio) T-47D: 24 h incubation with compound, ratio of net RFU (T=3 h) of test compound to control; for EC50: 24 h incubation, sigmoidal dose-response, read-out: Caspase potency EC50 (nM) T-47D
Protocol: (§1) Human breast cancer cell lines T-47D and ZR-75-1 were grown according to media component mixtures designated by American Type Culture Collection +10% FCS (Invitrogen Corporation), in a 5% CO2-95% humidity incubator at 37° C. T-47D and ZR-75-1 cells were maintained at a cell density between 30 and 80% confluency at a cell density of 0.1 to 0.6×10^6 cells/ml. Cells were harvested at 600×g and resuspended at 0.65×10^6 cells/mL into appropriate media +10% FCS. An aliquot of 45 μl of cells was added to a well of a 96-well microtiter plate containing 5 μl of a 10% DMSO in RPMI-1640 media solution containing 0.16 to 10 μM of 2-amino-3-cyano-4-(3-bromo-4,5-dimethoxyphenyl)-4H-indolo[7,6-b]pyran (Example 42) or other test compound (0.016 to 1 μM final). An aliquot of 45 μl of cells was added to a well of a 96-well microtiter plate containing 5 μl of a 10% DMSO in RPMI-1640 media solution without test compound as the control sample. The samples were mixed by agitation and then incubated at 37° C. for 24 h in a 5% CO2-95% humidity incubator. After incubation, the samples were removed from the incubator and 50 μl of a solution containing 20 μM of N-(Ac-DEVD)-N′-ethoxycarbonyl-R110 (SEQ ID NO:1) fluorogenic substrate (Cytovia, Inc.; WO99/18856), 20% sucrose (Sigma), 20 mM DTT (Sigma), 200 mM NaCl (Sigma), 40 mM Na PIPES buffer pH 7.2 (Sigma), and 500 μg/ml lysolecithin (Calbiochem) was added. The samples were mixed by agitation and incubated at room temperature. Using a fluorescent plate reader (Model 1420 Wallac Instruments), an initial reading (T=0) was made approximately 1-2 min after addition of the substrate solution, employing excitation at 485 nm and emission at 530 nm, to determine the background fluorescence of the control sample. After the 3 h incubation, the samples were read for fluorescence as above (T=3 h).
(§2) The Relative Fluorescence Unit values (RFU) were used to calculate the sample readings as follows: RFU(T=3h)−Control RFU(T=0)=Net RFU(T=3h)
(§3) The activity of caspase cascade activation was determined by the ratio of the net RFU value for 2-amino-3-cyano-4-(3-bromo-4,5-dimethoxyphenyl)-4H-indolo[7,6-b]pyran or other test compound to that of control samples. The EC50 (nM) was determined by a sigmoidal dose-response calculation (Prism 2.0, GraphPad Software Inc.).

[2] = system: Human breast cancer cell line ZR-75-1; assay: Caspase cascade activation assay (N-(Ac-DEVD)-N'-ethoxycarbonyl-R110 fluorogenic substrate) in ZR-75-1 cells; type: cell-based; conditions: ZR-75-1 cells; for EC50: 24 h incubation, sigmoidal dose-response, read-out: Caspase potency EC50 (nM) ZR-75-1; for Caspase activity (Ratio) ZR-75-1: 24 h incubation with compound, ratio of net RFU (T=3 h) of test compound to control
Protocol: as §1, §2, §3

Compound | EC50 ([1]; Homo sapiens, T47D, 24 h) [nM] | EC50 ([2]; Homo sapiens, ZR-75-1, 24 h) [nM] | EC50 [1] [nM] | EC50 [2] [nM] | Caspase activity (Ratio) T-47D [1] | Caspase activity (Ratio) ZR-75-1 [2]
CCNc1ccc2c(c1)OC(N)=C(C#N)C2c1cncc(C)c1 (stereo not shown) [Example 31, 2-Amino-3-cyano-7-ethylamino-4-(5-methyl-3-pyridyl)-4H-chromene] | 27 | 12 | – | – | 7.9 | 11.0
CCNc1ccc2c(c1)OC(N)=C(C#N)C2c1cncc(Br)c1 (stereo not shown) [Example 32, 2-Amino-3-cyano-4-(5-bromo-3-pyridyl)-7-ethylamino-4H-chromene] | 17 | 4 | – | – | 7.2 | 9.5
COc1ccc2c(c1)OC(N)=C(C#N)C2c1cncc(Br)c1 (stereo not shown) [Example 33, 2-Amino-3-cyano-4-(5-bromo-3-pyridyl)-7-methoxy-4H-chromene] | 7 | 7 | – | – | 7.0 | 10.4
Cc1cncc(C2C(C#N)=C(N)Oc3cc(N)ccc32)c1 (stereo not shown) [Example 34, 2,7-Diamino-3-cyano-4-(5-methyl-3-pyridyl)-4H-chromene] | 107 | 43 | – | – | 4.7 | 5.6
Cc1cncc(C2C3=CC=C4N=CC=C4C3OC(N)=C2C#N)c1 (stereo not shown) [Example 35, 2-Amino-3-cyano-4-(5-methyl-3-pyridyl)-4H-indolo[4,5-b]pyran] | 3 | 8 | – | – | 6.9 | 5.5
N#CC1=C(N)OC2C3=CC=NC3=CC=C2C1c1cncc(Br)c1 (stereo not shown) [Example 36, 2-Amino-3-cyano-4-(5-bromo-3-pyridyl)-4H-indolo[4,5-b]pyran] | 10 | 3 | – | – | 5.9 | 2.9
N#CC1=C(N)Oc2cc(N)ccc2C1c1cncc(Br)c1 (stereo not shown) [Example 37, 2,7-Diamino-3-cyano-4-(5-bromo-3-pyridyl)-4H-chromene] | 57 | 31 | – | – | 6.4 | 3.4
COc1cncc(C2C(C#N)=C(N)Oc3cc(N)ccc32)c1 (stereo not shown) [Example 39, 2,7-Diamino-3-cyano-4-(5-methoxy-3-pyridyl)-4H-chromene] | 283 | 177 | – | – | 8.4 | 14
COc1cncc(C2C(C#N)=C(N)Oc3cc(OC)ccc32)c1 (stereo not shown) [Example 40, 2-Amino-3-cyano-7-methoxy-4-(5-methoxy-pyridin-3-yl)-4H-chromene] | 27.4 | 16.9 | – | – | 7.9 | 8.9
COc1cncc(C2C3=CC=C4N=CC=C4C3OC(N)=C2C#N)c1 (stereo not shown) [Example 41, 2-Amino-3-cyano-4-(5-methoxy-pyridin-3-yl)-4H-indolo[4,5-b]pyran] | 13.9 | 6.6 | – | – | 6.8 | 7.2
COc1cc(C2C3=CC=C4C=CN=C4C3OC(N)=C2C#N)cc(Br)c1OC (stereo not shown) [Example 42, 2-Amino-3-cyano-4-(3-bromo-4,5-dimethoxyphenyl)-4H-indolo[7,6-b]pyran] | 30 | 25 | – | – | 7.6 | 13.1
COc1cccc(C2C3=CC=C4C=CN=C4C3OC(N)=C2C#N)c1 (stereo not shown) [Example 43, 2-Amino-3-cyano-4-(3-methoxyphenyl)-4H-indolo[7,6-b]pyran] | 143 | 81.9 | – | – | 6.5 | 5.9
COc1cccc(C2C(C#N)=C(N)Oc3c2ccc(N)c3N)c1 (stereo not shown) [Example 44, 3-Cyano-2,7,8-triamino-4-(3-methoxyphenyl)-4H-chromene] | 256 | 138 | – | – | 7.0 | 9.6
COc1cc(C2C(C#N)=C(N)Oc3c2ccc(N)c3N)cc(Br)c1OC (stereo not shown) [Example 45, 3-Cyano-2,7,8-triamino-4-(3-bromo-4,5-dimethoxyphenyl)-4H-chromene] | 41.8 | 35.4 | – | – | 6.0 | 11.9

More lines, main results first:

EC50 ([1]; Homo sapiens, T47D, 24 h) [nM] | EC50 ([2]; Homo sapiens, ZR-75-1, 24 h) [nM] | EC50 [1] [nM] | EC50 [2] [nM] | Compound | Caspase activity (Ratio) T-47D [1] | Caspase activity (Ratio) ZR-75-1 [2]
62 | 26 | 61.8 | 26.3 | COc1cccc(C2C3=CC=C4N=CC=C4C3OC(N)=C2C#N)c1 (stereo not shown) [Example 46, 2-Amino-3-cyano-4-(3-methoxyphenyl)-4H-indolo[4,5-b]pyran] | 6.4 | 7.1
> 1000 | 552 | – | – | Cc1cc2c(cc1Cl)C(c1ccccc1)C(C#N)=C(N)O2 (stereo not shown) [Example 47, 2-Amino-6-chloro-3-cyano-7-methyl-4-phenyl-4H-chromene] | 1.9 | 7.3
36.8 | 23.8 | – | – | COc1cc(C2C(C#N)=C(N)Oc3cc(N(C)C)ccc32)cc(Br)c1O (stereo not shown) [Example 48, 2-Amino-4-(3-bromo-4-hydroxy-5-methoxyphenyl)-3-cyano-7-dimethylamino-4H-chromene] | 10.5 | 6.1
67.7 | 35.9 | – | – | COc1cc(C2C(C#N)=C(N)Oc3cc(N)ccc32)cc(Br)c1O (stereo not shown) [Example 49, 3-Cyano-4-(3-bromo-4-hydroxy-5-methoxyphenyl)-2,7-diamino-4H-chromene] | 10.1 | 5.8
16.5 | 14.8 | – | – | COc1cc(C2C3=CC=C4N=CC=C4C3OC(N)=C2C#N)cc(Br)c1O (stereo not shown) [Example 50, 2-Amino-4-(3-bromo-4-hydroxy-5-methoxyphenyl)-3-cyano-4H-indolo[4,5-b]pyran] | 10.1 | 10.6
36.8 | 18.6 | – | – | COc1cc(C2C3=CC=C4C=CN=C4C3OC(N)=C2C#N)cc(Br)c1O (stereo not shown) [Example 51, 2-Amino-4-(3-bromo-4-hydroxy-5-methoxyphenyl)-3-cyano-4H-indolo[7,6-b]pyran] | 11.5 | 6.7
26 | 22.7 | – | – | COc1cc(OC)cc(C2C3=CC=C4C=CN=C4C3OC(N)=C2C#N)c1 (stereo not shown) [Example 52, 2-Amino-3-cyano-4-(3,5-dimethoxyphenyl)-4H-indolo[7,6-b]pyran] | 11.8 | 9.9
79.7 | 26.4 | – | – | N#CC1=C(N)OC2C(=CC=C3C=CN=C32)C1c1cccc(C#N)c1 (stereo not shown) [Example 53, 2-Amino-3-cyano-4-(3-cyano-phenyl)-4H-indolo[7,6-b]pyran] | 10.1 | 7.0
– | – | 314 | 216 | N#CC1=C(N)Oc2c(ccc3cc[nH]c23)C1c1cccc(C(F)(F)F)c1 (stereo not shown) [Example 54, 2-Amino-3-cyano-4-(3-trifluromethyl-phenyl)-4H-indolo[7,6-b]pyran] | 7.3 | 7.5
15.3 | 4 | – | – | Cc1cncc(C2C3=CC=C4C=CN=C4C3OC(N)=C2C#N)c1 (stereo not shown) [Example 55, 2-Amino-3-cyano-4-(5-methyl-pyridin-3-yl)-4H-indolo[7,6-b]pyran] | 7.4 | 7.2
252 | 157 | – | – | N#CC1=C(N)OC2C3=CC=NC3=CC=C2C1c1ccccc1 (stereo not shown) [Example 56, 2-Amino-3-cyano-4-phenyl-4H-indolo[4,5-b]pyran] | 8.3 | 7.7
58 | 27.9 | – | – | N#CC1=C(N)OC2C3=CC=NC3=CC=C2C1c1cncc(C#N)c1 (stereo not shown) [Example 57, 2-Amino-3-cyano-4-(5-cyano-pyridin-3-yl)-4H-indolo[4,5-b]pyran] | 7.2 | 7.3
